# Measured values: patent publication US9765381B2, “Mutated genes for the catalytic protein of oplophorus luciferase and use thereof” (JNC Corporation, priority 2013, dated 2017)
# Legend:
# [1] = test system: pcDNA3-GLsp-nanoKAZ/CHO-K1 stable expressed cell line; experiment: Secretory inhibition by brefeldin A, nanoKAZ with secretory signal peptide sequence; type: cell-based, Chinese hamster; conditions: brefeldin A 5 μg/mL, 0-6 hours, compared to absence of brefeldin A, FIG. 3
# Protocol: (§1) Using the stable expressed cell lines established in EXAMPLE 14 and EXAMPLE 15, the effect of brefeldin A that inhibits exocytosis through the trans-Golgi network by the vesicle-mediated transport was compared. Specifically, each stable expressed cell lines with 2×10^5 cells were seeded to a 6-well plate in 3 mL of Ham's F-12 medium containing 10% FBS, respectively; followed by incubation at 37° C. in a 5% CO2 incubator for 48 hours. After washing twice with 3 mL of Ham's F-12 medium containing 10% FBS, brefeldin A (manufactured by Wako Pure Chemical Industries, Ltd.) was added to the culture medium at a final concentration of 5 μg/mL. As a control experiment, cells were cultured in the absence of brefeldin A. The luminescence activity in the culture medium was determined at each incubation times at 0, 1, 3 and 6 hours, using coelenterazine as a substrate.
# [2] = test system: pcDNA3-nanoKAZ/CHO-K1 stable expressed cell line; experiment: Secretory inhibition by brefeldin A, nanoKAZ without secretory signal peptide sequence; type: cell-based, Chinese hamster; conditions: brefeldin A 5 μg/mL, 0-6 hours, FIG. 4
# Protocol: as §1
structure (smiles),measurement,setting,value
C[C@H]1CCC/C=C/[C@@H]2C[C@H](O)C[C@H]2[C@H](O)/C=C/C(=O)O1 [brefeldin A],secretion of nanoKAZ into the culture medium in the presence of brefeldin A,[1],markedly inhibited
same,secretion of nanoKAZ into the culture medium in the presence of brefeldin A,[2],secreted
